The values that follow come from patent publication US11964986B1, “9-oxo-9,10-dihydro-6H-pyrano[3,2-b:4,5-b′]dipyridine-8-carboxylic acid derivatives” (REJUVERON TELOMERE THERAPEUTICS AG, priority 2023, dated 2024).

Data set [1] has as its target T1, PAPD5 (Homo sapiens, UniProt Q8NDF8). Put plainly: cell-based. Conditions: for Fold sel. for PAPD5 over PAPD7: PAPD7 KO cells vs PAPD5 KO cells. More on the design: endogenous in cells; host or cells: HepG2/2.2.15 PAPD7 knock-out cells (CRISPR/Cas9).
Procedure: (§1) The hepatocarcinoma HepG2/2.2.15 cell line (hereafter referred to as wild type) was obtained from Millipore (SCC249) and HepG2/2.2.15 PAPD5 knock-out (PAPD5 KO) and PAPD7 knock-out (PAPD7 KO) cells were generated using CRISPR/Cas9 technology.
To this end, all compounds of the present invention were also tested in an ELISA on HepG2/2.2.15 PAPD5 and PAPD7 KO cell lines to determine the compounds' potency to inhibit PAPD5 and their selectivity for PAPD5 over PAPD7.
(§2) Cell seeding and addition of the compounds: On day −1, HepG2/2.2.15 cell lines were seeded in U-bottom 96-well plates (Fisher Scientific, 10777241) at a density of 1,5×10^4 cells/well in a final volume of 200 μL complemented DMEM/F12. On day 0, medium was aspirated and cells were washed once with PBS (300 μL/well). Then, PBS was replaced with complemented DMEM/F12 (200 μL/well). Using a Tecan-TE300e chemical dispenser, the compounds were added to the cells with 11 half-log incremental dilutions in dimethyl sulfoxide (DMSO) (Sigma-Aldrich, 276855) within the highest concentration equal to 25 μM (concentration range 1). DMSO was used as no-drug control, and the final DMSO concentration in all wells was 0.5%. […] On day 4, the 96-well plate was centrifuged for 5 min at 300 g to spin down cell debris. 100 μL/well of cell culture supernatant were collected and diluted 1:2 with 100 μL of complemented DMEM/F12 to perform the ELISA.
(§3) ELISA: Before starting, the “Hepatitis B surface antigen ELISA kit” (Abnova, KA0286) was equilibrated at room temperature (RT) for 1 h. […] The anti-HB plate was sealed using adhesive foil provided with the kit and incubated for 1 h at 37° C. […] After the last wash, the residual liquid was removed by turning the plate upside down and tapping on adsorbent paper. TMB substrate solutions A and B were mixed in equal volumes and 100 μL/well of this mixture were added to each well. The plate was covered with the supplied tray and incubated at RT for 20 min. During this time, a color develops in proportion to the amount of HBsAg bound to anti-HBs. After incubation, the reaction was stopped by adding 100 μL/well of 2N aqueous H2SO4 solution. The optical density of the developed color was read at 450 nm using a Cytation 5 instrument with reference wavelength at 620 nm.
(§4) CCK8 viability assay: Viability of HepG2/2.2.15 WT, PAPD5 KO and PAPD7 KO cell lines treated with the compounds was determined using the Cell Counting Kit-8 (CCK8, Sigma-Aldrich, 96992) following the manufacturer's instructions. […] During this time, WST-8 is reduced by dehydrogenases in cells to give a yellow-colored product (formazan), which is soluble in the tissue culture medium. The amount of the formazan dye generated by the activity of dehydrogenases in cells is directly proportional to the number of living cells. After 1 h incubation, the optical density of the developed color was read at 450 nm using a Cytation 5 instrument with the reference wavelength at 620 nm. CCK8 optical density values were used for normalization of the ELISA results.
To determine the IC50 values, the amount of HBsAg (optical density values of the ELISA) was corrected by the number of living cells (CCK8 optical density) per each well. Normalized HBsAg values were used to generate a dose-response curve with a non-linear regression model and applying the Levenberg-Marquardt algorithm.
Data set [2] relates to HBsAg secretion in HepG2/2.2.15 WT cells (combined effect of PAPD5 and PAPD7 inhibition).
Procedure: as §1
An ELISA was performed using a hepatocarcinoma HepG2/2.2.15 wild type (WT) cell line to assess the potential of the compounds of the present invention as treatments of chronic HBV infection.
as §2, §3, §4
To determine the IC50 values, the amount of HBsAg (optical density values of the ELISA) was corrected by the number of living cells (CCK8 optical density) per each well. Normalized HBsAg values were used to generate a dose-response curve with a non-linear regression model and applying the Levenberg-Marquardt algorithm. The percentage of inhibition was calculated relative to the untreated condition (DMSO CTRLs).
Another data set has as its target PAPD7 (Homo sapiens, UniProt Q5XG87). The experiment in a line: HBsAg ELISA in HepG2/2.2.15 PAPD5 KO cells (PAPD7 inhibitory activity). The format is cell-based. Conditions: Table 3, HBsAg secretion, 4 days, read-out: pIC50 PAPD7 (PAPD5 KO cells) (converted).
In data set [3] the test system is TERC in patient-derived iPSCs. The experiment in a line: TERC stability by RLM-RACE in patient-derived iPSCs. Conditions: 1-week treatment, FIG. 2A.
Procedure: For coating, one aliquot of Corning Matrigel hESC-qualified matrix (approximately 300 μL) was thawed on ice and diluted in 25 mL ice-cold DMEM/F-12. […] The coating solution was kept on ice and Matrigel was handled using ice-cold pipette tips. 6 mL of the coating solution were added to one 10 cm cell culture dish and spread by gentle rocking. The coated dishes were then incubated at RT for at least 30 min to let the matrix solidify. The coating solution was aspirated from the dishes and cells were seeded immediately. […] Cells were incubated shortly at 37° C. and the colonies were briefly disaggregated by gentle pipetting or by agitation. The single cell suspension was transferred in a canonical tube with cold 1× PBS and centrifuged at 300 g for 5 min to remove Accutase. Cell pellet was resuspended in an appropriate volume of complemented Essential E8 medium and seeded in a Matrigel-coated dish according to the split ratio.
The compounds were dissolved in DMSO at a 10 mM stock concentration and diluted in complemented Essential E8 medium at the reported concentrations (Table 6). […]
Samples were spun at 12000 g for 10 min at 4° C. […] The RNA concentration was measured using a Qubit HS RNA quantification kit (Thermo Fisher, Q32852). […]
DNA was stored overnight at −20° C. before loading on agarose gel. PCR products were quantified using a Qubit dsDNA BR quantification kit (Thermo Fisher, Q32850). […]
The target in data set [4] is T1, PAPD5. The experiment in a line: Degree of PAPD5 target engagement calculated for test concentrations in assays using iPSCs. More on the design: endogenous in cells.
Source text: (§5) In the ELISA 10% plasma protein (p=0.1) is used, whereas the assays using iPSCs are run in a plasma protein-free medium.
Data set [5] deals with telomere length in patient-derived iPSCs. The experiment in a line: Telomere restriction fragment (TRF) analysis in patient-derived iPSCs. Conditions: for telomere elongation: 4-week treatment, increasing concentrations, FIG. 2B.
Procedure: Healthy donor- and patient-derived induced Pluripotent Stem Cells (iPSCs), described in Moon et al. 2015, were cultured in feeder-free condition using Matrigel hESC-qualified matrix (Corning, 354277) coated cell culture dishes. For coating, one aliquot of Corning Matrigel hESC-qualified matrix (approximately 300 μL) was thawed on ice and diluted in 25 mL ice-cold DMEM/F-12. […] The coating solution was kept on ice and Matrigel was handled using ice-cold pipette tips. 6 mL of the coating solution were added to one 10 cm cell culture dish and spread by gentle rocking. The coated dishes were then incubated at RT for at least 30 min to let the matrix solidify. The coating solution was aspirated from the dishes and cells were seeded immediately. […] Cells were incubated shortly at 37° C. and the colonies were briefly disaggregated by gentle pipetting or by agitation. The single cell suspension was transferred in a canonical tube with cold 1× PBS and centrifuged at 300 g for 5 min to remove Accutase. Cell pellet was resuspended in an appropriate volume of complemented Essential E8 medium and seeded in a Matrigel-coated dish according to the split ratio.
The scope of this assay is to isolate telomeric DNA from healthy donor- and patient-derived iPSCs and determine the average length of isolated telomeres.
The compounds were dissolved in DMSO at a 10 mM stock concentration and diluted in complemented Essential E8 medium at the reported concentrations (Table 6). For untreated samples (0 nM) DMSO only was added to the medium. Culture medium with the diluted compound was replaced daily, and cells were subcultured as described above.
To carry out the cellular assays, cells were cultured in the presence of PAPD5 inhibitors and collected at different time points. […] (2) At week 4 (Day 28), cells were harvested for DNA isolation to perform Telomere Restriction Fragment (TRF) analysis. […]
Genomic DNA extraction: At day 28 of exposure, 2×10^6 iPSCs per condition were pelleted and resuspended in 200 μl PBS. […] DNA quantification was performed using a Qubit dsDNA BR quantification kit. […]
A short description of a further data set: logD(pH 7.4). The format is physicochemical.
Data set [6] in a line: kinetic solubility assay at pH 6.5. In kind it is physicochemical. Conditions: for solubility kinetic: pH 6.5, kinetic from dmso stock.
Data set [7] can be described thus: Plasma protein binding (fraction unbound).
Source text: as §5
Where [8] appears, read: Table 3, HepG2/2.2.15 PAPD7 KO cells, HBsAg secretion, 4 days, read-out: pIC50 PAPD5 (PAPD7 KO cells) (converted).
The mark [9] stands for this setting: Table 5, PAPD7 KO cells, read-out: PIC50 PAPD5 (PAPD7 KO cells) (converted).
Setting [10] is: PAPD5 IC50 by ELISA, HepG2/2.2.15 PAPD7 KO cell line, 10% plasma protein, read-out: IC50ELISA.
Setting [11] is: unbound IC50 in protein-free medium, IC50ELISA*fu,ELISA, read-out: IC50u.

pIC50: −log10 of the molar value. Converted amounts (≈) assume the structure as drawn. Like-named read-outs stand apart in the source and are kept apart here.

T1 sequence (Q8NDF8 whole entry): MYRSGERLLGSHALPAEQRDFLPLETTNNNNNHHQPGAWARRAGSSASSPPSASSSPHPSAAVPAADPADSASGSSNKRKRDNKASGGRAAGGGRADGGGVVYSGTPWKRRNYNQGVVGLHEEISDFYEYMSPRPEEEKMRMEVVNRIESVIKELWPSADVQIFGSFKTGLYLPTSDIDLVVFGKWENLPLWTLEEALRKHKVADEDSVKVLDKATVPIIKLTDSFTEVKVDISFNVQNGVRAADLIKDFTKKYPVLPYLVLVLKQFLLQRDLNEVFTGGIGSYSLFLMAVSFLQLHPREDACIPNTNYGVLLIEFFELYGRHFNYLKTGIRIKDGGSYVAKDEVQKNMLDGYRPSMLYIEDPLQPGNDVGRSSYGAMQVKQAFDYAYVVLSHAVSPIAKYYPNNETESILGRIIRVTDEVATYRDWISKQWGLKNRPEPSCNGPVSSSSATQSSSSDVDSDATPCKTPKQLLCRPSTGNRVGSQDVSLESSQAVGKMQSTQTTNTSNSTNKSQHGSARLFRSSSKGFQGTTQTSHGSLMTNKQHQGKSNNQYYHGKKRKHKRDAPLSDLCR
Sequence of PAPD7 (Q5XG87 whole entry): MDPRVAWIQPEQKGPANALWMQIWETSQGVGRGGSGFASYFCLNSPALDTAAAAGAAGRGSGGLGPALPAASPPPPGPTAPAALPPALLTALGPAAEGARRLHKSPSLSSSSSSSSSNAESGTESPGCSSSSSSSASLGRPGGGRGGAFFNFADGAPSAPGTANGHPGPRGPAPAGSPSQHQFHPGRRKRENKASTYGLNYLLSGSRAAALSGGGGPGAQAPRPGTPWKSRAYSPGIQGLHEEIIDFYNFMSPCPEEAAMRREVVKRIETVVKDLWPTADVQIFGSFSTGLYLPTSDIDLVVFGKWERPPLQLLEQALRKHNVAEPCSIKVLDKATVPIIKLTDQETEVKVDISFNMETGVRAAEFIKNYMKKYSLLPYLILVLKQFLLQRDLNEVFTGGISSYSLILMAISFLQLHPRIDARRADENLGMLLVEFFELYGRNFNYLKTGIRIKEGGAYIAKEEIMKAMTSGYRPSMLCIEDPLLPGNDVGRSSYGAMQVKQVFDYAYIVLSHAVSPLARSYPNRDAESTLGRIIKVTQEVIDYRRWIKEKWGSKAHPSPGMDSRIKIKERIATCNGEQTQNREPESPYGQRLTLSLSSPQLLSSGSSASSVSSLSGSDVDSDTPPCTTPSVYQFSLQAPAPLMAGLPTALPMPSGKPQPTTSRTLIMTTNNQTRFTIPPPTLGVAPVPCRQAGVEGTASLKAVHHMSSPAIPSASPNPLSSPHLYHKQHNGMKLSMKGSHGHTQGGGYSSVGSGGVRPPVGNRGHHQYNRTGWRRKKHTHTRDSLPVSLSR

Regarding `COCCCOc1cc2c(nc1OC)-c1[nH]c(=O)c(C(=O)O)cc1C1(CCCC1)O2` [Example 509, 2′-Methoxy-3′-(3-methoxypropoxy)-9′-oxo-9′,10′-dihydrospiro[cyclopentane-1,6′-pyrano[3,2-b:4,5-b′]dipyridine]-8′-carboxylic acid], the values for the IC50 on PAPD5 [1] (setting [8]) and on PAPD7 were 31.6 nM and 316 nM, respectively. In addition, the “Fold sel. for PAPD5 over PAPD7” value on PAPD5 [1] (Table 3) was 10.4 Fold. The pIC50 in data set [2] is 7.60.
For `COCCCOc1cc2c(nc1OC)-c1c(cc(C(=O)O)c(=O)n1C1CC1)C(C(C)(C)C)C2` (racemic) [Example 702, (RS)-5-(tert-Butyl)-1-cyclopropyl-9-methoxy-8-(3-methoxypropoxy)-2-oxo-1,2,5,6-tetrahydro-1,10-phenanthroline-3-carboxylic acid, reference compound], the IC50 on PAPD5 [1] (setting [9]) is 3.16 nM. Further, the pIC50 in data set [2] was 8.60.
As for `COCCCOc1cc2c(cc1OC)-c1[nH]c(=O)c(C(=O)O)cc1C(C(C)(C)C)O2` (racemic) [Example 801, (RS)-5-(tert-Butyl)-9-methoxy-8-(3-methoxypropoxy)-2-oxo-1,5-dihydro-2H-chromeno[4,3-b]pyridine-3-carboxylic acid, reference compound], the IC50 on PAPD5 [1] (setting [9]) is 50.1 nM. Also, the pIC50 in [2] was 7.40.
Turning to `COCCCOc1cc2c(cc1OC)-c1c(cc(C(=O)O)c(=O)n1C1CC1)C(C(C)(C)C)O2` (racemic) [Example 802, (RS)-5-(tert-Butyl)-1-cyclopropyl-9-methoxy-8-(3-methoxypropoxy)-2-oxo-1,5-dihydro-2H-chromeno[4,3-b]pyridine-3-carboxylic acid, reference compound], the pIC50 in [2] was 9.00.
For the compound `COCCCOc1cc2c(nc1C1CC1)-c1c(cc(C(=O)O)c(=O)n1C1CC1)C(C(C)(C)C)O2` (racemic) [Example 508, (RS)-6-(tert-butyl)-2,10-dicyclopropyl-3-(3-methoxypropoxy)-9-oxo-9,10-dihydro-6H-pyrano[3,2-b:4,5-b′]dipyridine-8-carboxylic acid], the IC50 at PAPD5 [1] (setting [8]) and on PAPD7 was 0.1 nM each time. For the same compound, the “Fold sel. for PAPD5 over PAPD7” value at PAPD5 [1] (Table 3) is 1.0 Fold. In addition, in [2], the pIC50 was 10.20.
For `COCCCOc1cc2c(nc1OC)-c1c(cc(C(=O)O)c(=O)n1C)C(C(C)C)O2` (racemic) [Example 502, (RS)-6-Isopropyl-2-methoxy-3-(3-methoxypropoxy)-10-methyl-9-oxo-9,10-dihydro-6H-pyrano[3,2-b:4,5-b′]dipyridine-8-carboxylic acid], in [2], the pIC50 is 8.20. Besides, the IC50 on PAPD7 was 12.6 nM.
On to `COCCCOc1cc2c(nc1OC)-c1c(cc(C(=O)O)c(=O)n1CC(F)F)C(C(C)C)O2` (racemic) [Example 511, (RS)-10-(2,2-Difluoroethyl)-6-isopropyl-2-methoxy-3-(3-methoxypropoxy)-9-oxo-9,10-dihydro-6H-pyrano[3,2-b:4,5-b′]dipyridine-8-carboxylic acid], for which the values for the IC50 on PAPD5 [1] (setting [8]) and on PAPD7 were 0.794 nM and 5.01 nM, respectively. Moreover, the “Fold sel. for PAPD5 over PAPD7” value at PAPD5 [1] (Table 3) turned out to be 6.9 Fold. The pIC50 in [2] is 8.90.
`COCCCOc1cc2c(nc1OC)-c1c(cc(C(=O)O)c(=O)n1C1CC1)C(C(C)C)O2` (racemic) [Example 504, (RS)-10-Cyclopropyl-6-isopropyl-2-methoxy-3-(3-methoxypropoxy)-9-oxo-9,10-dihydro-6H-pyrano[3,2-b:4,5-b′]dipyridine-8-carboxylic acid]: the IC50 on PAPD5 [1] (setting [8]) was 0.631 nM; on PAPD7 it was 2.51 nM. For the same compound, the “Fold sel. for PAPD5 over PAPD7” value at PAPD5 [1] (Table 3) is 4.8 Fold. Moreover, the pIC50 in [2] was 9.30.
In the case of `COCCCOc1cc2c(cc1OC)-c1cc(=O)c(C(=O)O)cn1[C@H](C(C)C)C2` [RG7834], the “fu, plasma” value came out at 0.328. The “levels of the mature and stable form of TERC” value in [3] was “restores the steady-state and physiological levels of the mature and stable form of TERC”. In addition, the “% Target engagement (X)” value on PAPD5 [4] (test conc. 0.3 nM) is 16%. Besides, the “% Target engagement (X)” value on PAPD5 [4] (test conc. 1 nM) was 38%. Besides, the “% Target engagement (X)” value on PAPD5 [4] (test conc. 3 nM) was 65%. The “% Target engagement (X)” value on PAPD5 [4] (test conc. 10 nM) was 86%. Besides, at PAPD5 [4] (test conc. 30 nM), the “% Target engagement (X)” value is listed as 95%. In addition, for the setting “plasma”, the “fu, ELISA” value stood at 0.83. In addition, at PAPD5 [1] (setting [10]), the pIC50 was 8.79. For the same compound, at PAPD5 [1] (setting [11]), the pIC50 was 8.87. For the same compound, the telomere elongation result in data set [5] is given as “dose-dependently effects telomere elongation”.
In the case of `COCCCOc1cc2c(nc1C1CC1)-c1[nH]c(=O)c(C(=O)O)cc1C(C(C)(C)C)O2` (racemic) [Example 507, (RS)-6-(tert-Butyl)-2-cyclopropyl-3-(3-methoxypropoxy)-9-oxo-9,10-dihydro-6H-pyrano[3,2-b:4,5-b′]dipyridine-8-carboxylic acid], the figures for the IC50 at PAPD5 [1] (setting [8]) and on PAPD7 were 0.398 nM and 0.631 nM, respectively. Moreover, the “Fold sel. for PAPD5 over PAPD7” value at PAPD5 [1] (Table 3) was 1.8 Fold. Besides, the pIC50 in data set [2] is 9.10.
In the data set “logD(pH 7.4)”, `COCCCOc1cc2c(nc1OC)-c1[nH]c(=O)c(C(=O)O)cc1C(C(C)(C)C)C2` (racemic) [Example 701, (RS)-5-(tert-Butyl)-9-methoxy-8-(3-methoxypropoxy)-2-oxo-1,2,5,6-tetrahydro-1,10-phenanthroline-3-carboxylic acid, reference compound] displayed a logD of 1.4. In data set [6], this compound had a solubility (kinetic) of 186 µM (≈ 77.3 µg/mL).
Turning to `COCCCOc1cc2c(nc1OC)-c1[nH]c(=O)c(C(=O)O)cc1C(C(C)C)O2` (racemic) [Example 501, (RS)-6-Isopropyl-2-methoxy-3-(3-methoxypropoxy)-9-oxo-9,10-dihydro-6H-pyrano[3,2-b:4,5-b′]dipyridine-8-carboxylic acid], the figures for the IC50 on PAPD5 [1] (setting [8]) and at PAPD7 were 6.31 nM and 39.8 nM, respectively. Moreover, the “Fold sel. for PAPD5 over PAPD7” value on PAPD5 [1] (Table 3) was found to be 7.1 Fold. Besides, in [2], the pIC50 is 8.10.
`COCCCOc1cc2c(nc1OC)-c1[nH]c(=O)c(C(=O)O)cc1C(C(C)(C)C)O2` (racemic) [Example 505, (RS)-6-(tert-Butyl)-2-methoxy-3-(3-methoxypropoxy)-9-oxo-9,10-dihydro-6H-pyrano[3,2-b:4,5-b′]dipyridine-8-carboxylic acid] yielded a logD in “logD(pH 7.4)” of 1.1. For the same compound, in data set [6] (kinetic solubility assay at pH 6.5), the “fold more soluble than example 701” value is on record as 2.6 fold. In addition, in data set [6], the solubility (kinetic) came to 484 µM (≈ 203 µg/mL). The IC50 was 2 nM at PAPD5 [1] (setting [8]), 2 nM at PAPD5 [1] (setting [9]) and 10 nM at PAPD7. Besides, the “Fold sel. for PAPD5 over PAPD7” value at PAPD5 [1] (Table 3) turned out to be 4.9 Fold. Further, the pIC50 in [2] was 8.70.
Consider `COCCCOc1cc2c(nc1OC)-c1c(cc(C(=O)O)c(=O)n1C1CC1)C(C(C)(C)C)O2` (racemic) [Example 506, (RS)-6-(tert-Butyl)-10-cyclopropyl-2-methoxy-3-(3-methoxypropoxy)-9-oxo-9,10-dihydro-6H-pyrano[3,2-b:4,5-b′]dipyridine-8-carboxylic acid], for which the fraction unbound is 0.347 in [7] and 0.84 in [7] (fu, ELISA, fraction unbound in ELISA, calculated with p = 0.1). Besides, the “levels of the mature and stable form of TERC” value in data set [3] is “restores the steady-state and physiological levels of the mature and stable form of TERC”. For the same compound, the results for the “% Target engagement (X)” value on PAPD5 [4] (test conc. 0.1 nM), on PAPD5 [4] (test conc. 0.5 nM) and on PAPD5 [4] (test conc. 2.5 nM) were 54%, 86% and 97%, respectively. Further, the pIC50 on PAPD5 [1] (setting [10]) was 10.07; at PAPD5 [1] (setting [11]) it was 10.15; in data set [2], 9.70. The “Fold sel. for PAPD5 over PAPD7” value at PAPD5 [1] (Table 3) was determined as 6.1 Fold. Also, the IC50 at PAPD5 [1] (setting [9]) was 0.0794 nM; on PAPD7 it was 0.501 nM. Also, in data set [5] (0.5 nM, 4 weeks of treatment), the “telomere length after elongation” value is recorded as “up to 8 kb”. Also, in data set [5], the telomere elongation entry is on record as “dose-dependently effects telomere elongation”.
As to `COCCCOc1cc2c(nc1OC)-c1c(cc(C(=O)O)c(=O)n1CCO)C(C(C)C)O2` (racemic) [Example 510, (RS)-10-(2-Hydroxyethyl)-6-isopropyl-2-methoxy-3-(3-methoxypropoxy)-9-oxo-9,10-dihydro-6H-pyrano[3,2-b:4,5-b′]dipyridine-8-carboxylic acid], the IC50 at PAPD5 [1] (setting [8]) is 5.01 nM; on PAPD7 it was 31.6 nM. The “Fold sel. for PAPD5 over PAPD7” value at PAPD5 [1] (Table 3) was 6.4 Fold. Also, the pIC50 in [2] is 7.80.
With `CCn1c2c(cc(C(=O)O)c1=O)C(C(C)C)Oc1cc(OCCCOC)c(OC)nc1-2` (racemic) [Example 503, (RS)-10-Ethyl-6-isopropyl-2-methoxy-3-(3-methoxypropoxy)-9-oxo-9,10-dihydro-6H-pyrano[3,2-b:4,5-b′]dipyridine-8-carboxylic acid], the IC50 on PAPD5 [1] (setting [8]) is 1 nM; on PAPD7, 5.01 nM. Besides, the “Fold sel. for PAPD5 over PAPD7” value at PAPD5 [1] (Table 3) came out at 5.9 Fold. For the same compound, the pIC50 in [2] was 8.90.
